Assay [1] concerns HEK293T cells. Kind of assay: p21 immunoblotting in HEK293T cells. Conditions: 6 h drug exposure.
Assay [2] deals with MM1.S cells. In words: Cell growth inhibition, CellTiter Blue. Format: cell-based. The conditions noted are these: 72 h drug exposure, single experiment in hexaplicate (± SEM).
Assay [3] relates to HEK293T cells. Kind of assay: Cell growth inhibition, CellTiter Blue. The assay is classed as cell-based. Conditions: 72 h drug exposure, single experiment in hexaplicate (± SEM).
Assay [4] relates to PLK1. Kind of assay: Phospho-TCTP. The conditions noted are these: MM1.S cells; 30 – 100 nM drug concentration; 6 h drug exposure; immunoblotting.

For `CC[C@@H]1C(=O)N(C)c2cnc(Nc3ccc(C(=O)NC4CCN(C)CC4)cc3OC)nc2N1C1CCCC1` [BI2536], in assay [1], the p21Cip1 levels entry is on record as “increased significantly”.
On to `CCOc1cc(C(=O)N2CCC(N3CCN(C)CC3)CC2)ccc1Nc1ncc2c(n1)N(C1CCCC1)c1ccccc1C(=O)N2C` [ERK5-IN-1], for which the p21Cip1 levels result in assay [1] is reported as “lacked the potential to increase”.
For the molecule `C[C@@H](Oc1cc(-n2cnc3ccc(CN4CCN(C)CC4)cc32)sc1C(N)=O)c1ccccc1C(F)(F)F` [GSK461364], the “Cell growth inhibitory potential IC50” value in assay [2] and in assay [3] was “low nanomolar” in each case. The “levels of phosphorylated TCTP (S46)” value in assay [4] is given as “significantly reduced”.
Turning to `COc1cc(C(=O)N2CCC(N3CCN(C)CC3)CC2)ccc1Nc1ncc2c(n1)N(C)c1ccccc1C(=O)N2C` [LRRK2-IN-1], the p21Cip1 levels result in assay [1] was “increased significantly”.
Take `CC[C@@H]1C(=O)N(C)c2cnc(Nc3ccc(C(=O)N[C@H]4CC[C@H](N5CCN(CC6CC6)CC5)CC4)cc3OC)nc2N1C(C)C` [Volasertib]: the p21Cip1 levels entry in assay [1] is recorded as “increased significantly”. Besides, the “levels of phosphorylated TCTP (S46)” value in assay [4] is “significantly reduced”.
In the case of `CCOc1cc(N2CCC(O)CC2)ccc1Nc1ncc2c(n1)N(C)c1ccccc1C(=O)N2C` [XMD8-92], the p21Cip1 levels result in assay [1] was “lacked the potential to increase”.

The record behind these values is paper PMC9119049 (Journal of medicinal chemistry, 2021).
